Reference: patent US9499538B2, “Estrogen receptor modulators and uses thereof” (Seragon Pharmaceuticals, Inc., priority 2012, dated 2016)

What was measured:
[1] = test system: MCF-7 cells; experiment: Breast Cancer Cell Viability Assays (MCF-7, CellTiter-Glo); type: cell-based; conditions: 5 days' compound exposure; for IC50: Homo sapiens, MCF7, 120 h
Outline: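 Percent viability, background-subtracted against untreated wells, was taken from CellTiter-Glo luminescence after 5 days' exposure of MCF-7 cells. Compounds were tested at eleven semilog concentrations, final 0.3–0.000003 μM, in RPMI containing 10% FBS.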

[2] = target: T1, ER-α in MCF-7 cells (Homo sapiens, UniProt P03372); experiment: Breast Cancer Cell ER-α In Cell Western Assay (SP1); type: cell-based; conditions: 4 or 24 hr post compound addition; for Emax: MCF7, SP1 antibody, read-out: ER-α In Cell Western Assay (SP1) Max Response; for DC50: SP1 antibody, read-out: ER-α In Cell Western Assay (SP1) IC50
T1 construct: endogenous in cells; host or cells: MCF-7
T1 sequence (P03372 1-595): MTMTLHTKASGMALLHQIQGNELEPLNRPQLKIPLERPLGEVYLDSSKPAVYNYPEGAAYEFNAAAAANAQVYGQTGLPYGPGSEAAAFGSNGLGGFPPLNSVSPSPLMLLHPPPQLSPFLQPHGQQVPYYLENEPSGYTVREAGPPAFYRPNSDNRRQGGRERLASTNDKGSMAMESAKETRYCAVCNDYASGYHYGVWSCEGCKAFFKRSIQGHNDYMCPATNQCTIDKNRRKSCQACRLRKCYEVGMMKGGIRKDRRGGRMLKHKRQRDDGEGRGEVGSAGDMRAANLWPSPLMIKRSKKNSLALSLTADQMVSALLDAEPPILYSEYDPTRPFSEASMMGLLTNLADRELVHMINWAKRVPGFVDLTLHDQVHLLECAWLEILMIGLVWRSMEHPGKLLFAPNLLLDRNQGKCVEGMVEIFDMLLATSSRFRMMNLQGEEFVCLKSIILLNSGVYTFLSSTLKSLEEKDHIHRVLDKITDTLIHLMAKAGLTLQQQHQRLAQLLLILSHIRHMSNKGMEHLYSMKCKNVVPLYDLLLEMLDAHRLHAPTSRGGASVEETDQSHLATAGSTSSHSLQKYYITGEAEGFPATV
Outline: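 ER-α levels quantified by in-cell western: SP1 signal normalised to DRAQ5 DNA stain, relative to untreated cells (% ER). Compounds at 0.3–0.000003 μM final, 11-point semilog series, 4 or 24 h exposure of MCF-7 cells grown in charcoal-stripped serum.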

| Compound | MCF7 Viability Assay Max Response [1] | IC50 [1] | Emax [2] | DC50 [2] |
| --- | --- | --- | --- | --- |
| COc1ccc(/C(=C(\c2ccc(/C=C/C(=O)O)cc2)c2ccc3[nH]nc(F)c3c2)C2CCC2)cn1 [Example 138, (E)-3-(4-((E)-2-Cyclobutyl-1-(3-fluoro-1H-indazol-5-yl)-2-(6-methoxypyridin-3-yl)vinyl)phenyl)acrylic acid] | ++ (++ = a single % value ≧ 40%) | ≤ 100 nM | ≥ 40% | ≤ 100 nM |
| CC/C(=C(/c1ccc(/C=C/C(=O)O)cc1)c1ccc2[nH]ncc2c1OC)c1ccccc1 [Example 8, (E)-3-(4-((E)-1-(4-Methoxy-1H-indazol-5-yl)-2-phenylbut-1-en-1-yl)phenyl)acrylic acid] | ++ (++ = a single % value ≧ 40%) | ≤ 100 nM | ≥ 40% | ≤ 100 nM |
| CC/C(=C(/c1ccc(/C=C/C(=O)O)cc1)c1ccc2[nH]nc(F)c2c1)c1ccccc1Cl [Example 261, (E)-3-(4-((E)-2-(2-Chlorophenyl)-1-(3-fluoro-1H-indazol-5-yl)but-1-en-1-yl)phenyl)acrylic acid] | ++ (++ = a single % value ≧ 40%) | ≤ 100 nM | ≥ 40% | ≤ 100 nM |
| C/C(=C\c1ccc(/C(=C(\c2ccccc2)C2CCC2)c2ccc3[nH]nc(F)c3c2)cc1)C(=O)O [Example 267, (E)-3-(4-((E)-2-Cyclobutyl-1-(3-fluoro-1H-indazol-5-yl)-2-phenylvinyl)phenyl)-2-methylacrylic acid] | ++ (++ = a single % value ≧ 40%) | ≤ 100 nM | ≥ 40% | ≤ 100 nM |
| O=C(O)/C=C/c1ccc(/C(=C(\c2ccc(F)cc2Cl)C2CCC2)c2coc3c(O)cccc23)cc1 [Example 212, (E)-3-(4-((E)-2-(2-Chloro-4-fluorophenyl)-2-cyclobutyl-1-(7-hydroxybenzofuran-3-yl)vinyl)phenyl)acrylic acid] | ++ (++ = a single % value ≧ 40%) | ≤ 100 nM | ≥ 40% | ≤ 100 nM |
| O=C(/C=C/c1ccc(/C(=C(\c2ccc(F)cc2Cl)C2CCC2)c2ccc3[nH]nc(F)c3c2)cc1)Nc1nccs1 [Example 186, (E)-3-(4-((E)-2-(2-Chloro-4-fluorophenyl)-2-cyclobutyl-1-(3-fluoro-1H-indazol-5-yl)vinyl)phenyl)-N-(thiazol-2-yl)acrylamide] | ++ (++ = a single % value ≧ 40%) | ≤ 100 nM | ≥ 40% | ≤ 100 nM |
| NNC(=O)/C=C/c1ccc(/C(=C(\c2ccccc2)C2CCC2)c2ccc3[nH]nc(F)c3c2)cc1 [Example 203, (E)-3-(4-((E)-2-Cyclobutyl-1-(3-fluoro-1H-indazol-5-yl)-2-phenylvinyl)phenyl)acrylohydrazide] | ++ (++ = a single % value ≧ 40%) | ≤ 100 nM | ≥ 40% | ≤ 100 nM |
| CC/C(=C(/c1ccc(/C=C/C(=O)O)cc1)c1ccc2[nH]nc(F)c2c1)c1ccc(OC)cc1C#N [Example 107] | ++ (++ = a single % value ≧ 40%) | ≤ 100 nM | ≥ 40% | ≤ 100 nM |
| COc1cccc2c(/C(=C(/c3ccc(F)cc3Cl)C3CCC3)c3ccc(/C=C/C(=O)O)cc3)coc12 [Example 76, (E)-3-(4-((E)-2-(2-Chloro-4-fluorophenyl)-2-cyclobutyl-1-(7-methoxybenzofuran-3-yl)vinyl)phenyl)acrylic acid] | ++ (++ = a single % value ≧ 40%) | ≤ 100 nM | ≥ 40% | ≤ 100 nM |
| O=C(O)/C=C/c1ccc(/C(=C(\c2ccccc2)C2CCC2)c2cc(F)c3[nH]ncc3c2F)cc1 [Example 22, (E)-3-(4-((E)-2-Cyclobutyl-1-(4,7-difluoro-1H-indazol-5-yl)-2-phenylvinyl)phenyl)acrylic acid] | ++ (++ = a single % value ≧ 40%) | > 100 nM | ≥ 40% | > 100 nM |
| O=C(O)/C=C/c1ccc(/C(=C(\c2ncccc2Cl)C2CCC2)c2ccc3scnc3c2)cc1 [Example 100, (E)-3-(4-((E)-1-(Benzo[d]thiazol-5-yl)-2-(3-chloropyridin-2-yl)-2-cyclobutylvinyl)phenyl)acrylic acid] | ++ (++ = a single % value ≧ 40%) | ≤ 100 nM | ≥ 40% | ≤ 100 nM |
| O=C(O)/C=C/c1ccc(/C(=C(\c2cncc(Cl)c2)C2CCC2)c2ccc3[nH]nc(F)c3c2)cc1 [Example 130, (E)-3-(4-((E)-2-(5-Chloropyridin-3-yl)-2-cyclobutyl-1-(3-fluoro-1H-indazol-5-yl)vinyl)phenyl)acrylic acid] | ++ (++ = a single % value ≧ 40%) | ≤ 100 nM | ≥ 40% | ≤ 100 nM |
| O=C(O)/C=C/c1ccc(/C(=C(\c2ccccc2)C2CCC2)c2ccc3[nH]ncc3c2F)cc1 [Example 25, (E)-3-(4-((E)-2-Cyclobutyl-1-(4-fluoro-1H-indazol-5-yl)-2-phenylvinyl)phenyl)acrylic acid] | ++ (++ = a single % value ≧ 40%) | ≤ 100 nM | ≥ 40% | ≤ 100 nM |
| N#Cc1ccc(/C(=C(\c2ccc(/C=C/C(=O)O)cc2)c2ccc3scnc3c2)C2CCC2)c(Cl)c1 [Example 218, (E)-3-(4-((E)-1-(Benzo[d]thiazol-5-yl)-2-(2-chloro-4-cyanophenyl)-2-cyclobutylvinyl)phenyl)acrylic acid] | ++ (++ = a single % value ≧ 40%) | ≤ 100 nM | ≥ 40% | ≤ 100 nM |
